According to patent publication US8445653B2, “Freeze-dried preparation of stabilized anthracycline compound” (Dainippon Sumitomo Pharma, priority 2002, dated 2013):
Counter-ions that a name gives are not always drawn. Like-named read-outs stand apart in the source and are kept apart here. Values belong to the molecule of their own block, whether it stands above or below them.

Legend:
[1] = injection sold in Japan dissolved in distilled water for injection or physiological saline solution; cited from earlier work
[2] = Turbidity of injection solution prepared from lyophilized amrubicin preparation; assay type: physicochemical
[3] = pH of anthracycline injections when dissolved; assay type: physicochemical; conditions: lyophilized preparation for clinical administration dissolved in physiological saline solution or 5% glucose injection
Method: Actually, when the anthracycline anticancer agents being sold in Japan (all of them are injections) are dissolved in a distilled water for injection or a physiological saline solution, the pH values thereof are as follows (Drugs (ethical drugs) in Japan, 24 ed., 2001, edited by Japan Pharmaceutical Information Center).
(§1) On the contrary, since amrubicin hydrochloride tends to generate a deaminated compound (3) at a pH value of 3.5 or above, it is unstable at a high pH value as shown in the above anthracycline anticancer agents, and when the lyophilized preparation of amrubicin hydrochloride for clinical administration is dissolved in a physiological saline solution or a 5% glucose injection, the pH value thereof is 2.4 to 3.0.

[4] = Degradation in solution state at controlled solution temperature (Experiment 4); assay type: physicochemical
Method: To amrubicin hydrochloride (20 mg potency) in a glass beaker were added L-cysteine hydrochloride monohydrate (3.2 mg) and lactose (50 mg) as an excipient, and the resultant was dissolved in a distilled water for injection. The pH value of the solution was slightly adjusted to about pH 3 with a trace amount of sodium hydroxide and hydrochloric acid, and the resulting solution was put into a temperature-controlled bath at 5° C., 10° C., 15° C. and 25° C. The solution was sampled at the start, 6 hours later, and 24 hours later, and the degradation products therein were measured by HPLC method. The increased amounts of the desaccharified compound (2) and the deaminated compound (3) from those at the start are shown in Table 4.

[5] = pH dependence of generation of deaminated compound (3) from amrubicin hydrochloride; assay type: physicochemical
Method: as §1

[6] = solution about pH 3, 5° C., 6 h
[7] = solution about pH 3, 5° C., 24 h
[8] = solution about pH 3, 10° C., 0 h
[9] = solution about pH 3, 10° C., 6 h
[10] = solution about pH 3, 10° C., 24 h
[11] = solution about pH 3, 15° C., 0 h
[12] = solution about pH 3, 15° C., 6 h
[13] = solution about pH 3, 15° C., 24 h
[14] = solution about pH 3, 25° C., 0 h
[15] = solution about pH 3, 25° C., 6 h
[16] = solution about pH 3, 25° C., 24 h

SMILES: COc1cccc2c1C(=O)c1c(O)c3c(c(O)c1C2=O)C[C@@](O)(C(=O)CO)C[C@@H]3O[C@H]1C[C@H](N)[C@H](O[C@@H]2CCCCO2)[C@H](C)O1.Cl [Pirarubucin hydrochloride]
- pH value [1]: 5.0-6.5

SMILES: COc1cccc2c1C(=O)c1c(O)c3c(c(O)c1C2=O)C[C@@](O)(C(=O)CO)C[C@@H]3O[C@H]1C[C@H](N)[C@H](O)[C@H](C)O1 [Doxorubicin hydrochloride]
- pH value [1]: 5.0-6.0

- Ratio at which it may cause turbidity of the injection solution [2]: ≥ 1%
SMILES: CC(=O)C1=Cc2c(O)c3c(c(O)c2[C@@H](OC2CC(O)C(O)CO2)C1)C(=O)c1ccccc1C3=O (some centres unmarked) [deaminated compound (3)]

SMILES: CC(=O)[C@]1(N)Cc2c(O)c3c(c(O)c2[C@@H](O[C@H]2C[C@H](O)[C@H](O)CO2)C1)C(=O)c1ccccc1C3=O [amrubicin hydrochloride, (7S,9S)-9-Acetyl-9-amino-7-[(2-deoxy-β-D-erythro-pentopyranosyl)-oxy]-7,8,9,10-tetrahydro-6,11-dihydroxy-5,12-naphthacenedione]
- pH value [3]: 2.4 to 3.0
- Increased amount of deaminated compound (3) ([4]; solution about pH 3, 5° C., 0 h): 0.00%
- Increased amount of deaminated compound (3) [4, 6]: 0.00%
- Increased amount of desaccharified compound (2) [4, 6]: −0.01%
- Increased amount of deaminated compound (3) [4, 7]: 0.04%
- Increased amount of desaccharified compound (2) [4, 7]: 0.02%
- Increased amount of deaminated compound (3) [4, 8]: 0.00%
- Increased amount of desaccharified compound (2) [4, 8]: 0.00%
- Increased amount of deaminated compound (3) [4, 9]: 0.00%
- Increased amount of desaccharified compound (2) [4, 9]: 0.01%
- Increased amount of deaminated compound (3) [4, 10]: 0.09%
- Increased amount of desaccharified compound (2) [4, 10]: 0.01%
- Increased amount of deaminated compound (3) [4, 11]: 0.00%
- Increased amount of desaccharified compound (2) [4, 11]: 0.00%
- Increased amount of deaminated compound (3) [4, 12]: 0.07%
- Increased amount of desaccharified compound (2) [4, 12]: 0.00%
- Increased amount of deaminated compound (3) [4, 13]: 0.24%
- Increased amount of desaccharified compound (2) [4, 13]: −0.01%
- Increased amount of deaminated compound (3) [4, 14]: 0.00%
- Increased amount of desaccharified compound (2) [4, 14]: 0.00%
- Increased amount of deaminated compound (3) [4, 15]: 0.19%
- Increased amount of desaccharified compound (2) [4, 15]: 0.05%
- Increased amount of deaminated compound (3) [4, 16]: 0.60%
- Increased amount of desaccharified compound (2) [4, 16]: 0.18%
- Increased amount of desaccharified compound (2) ([4]; solution about pH 3 with L-cysteine hydrochloride monohydrate and lactose, 5° C., 0 h): 0.00%
- pH value at which deaminated compound (3) tends to be generated [5]: ≥ 3.5

SMILES: COc1cccc2c1C(=O)c1c(O)c3c(c(O)c1C2=O)C[C@@](O)(C(C)=O)C[C@@H]3O[C@H]1C[C@H](N)[C@H](O)[C@H](C)O1 [Daunorubicin hydrochloride]
- pH value [1]: 5.0-6.5

SMILES: CC[C@@]1(O)C[C@H](O[C@H]2C[C@H](N(C)C)[C@H](O[C@H]3C[C@H](O)[C@H](O[C@H]4CCC(=O)[C@H](C)O4)[C@H](C)O3)[C@H](C)O2)c2c(cc3c(c2O)C(=O)c2c(O)cccc2C3=O)[C@H]1C(=O)OC [Aclarubicin hydrochloride]
- pH value [1]: 5.0-6.5

SMILES: CC(=O)[C@]1(O)Cc2c(O)c3c(c(O)c2[C@@H](O[C@H]2C[C@H](N)[C@H](O)[C@H](C)O2)C1)C(=O)c1ccccc1C3=O [Idarubicin hydrochloride]
- pH value [1]: 5.0-7.0
